Data published in ChEMBL document CHEMBL3885881, “DrugMatrix”.

Organism: Rattus norvegicus
Test: DrugMatrix - Regimen: Daily Repeat
Type: toxicity, organism-based, Sprague-Dawley
Parameters: regimen Daily Repeat, gender Male, age 6-8 weeks
Conditions: in vivo, po, route oral GAVAGE, vehicle 100 % SALINE; for ALBUMIN / ALKALINE PHOSPHATASE / ASPARTATE AMINOTRANSFERASE / BLOOD UREA NITROGEN / CARBON DIOXIDE / CHLORIDE / CHOLESTEROL / CREATINE PHOSPHOKINASE / CREATININE / GLUCOSE / LACTATE DEHYDROGENASE / LIPASE / PHOSPHORUS / SODIUM / TOTAL BILIRUBIN / TOTAL PROTEIN / ALANINE AMINOTRANSFERASE: tissue Plasma; for ABSOLUTE BASOPHIL / ABSOLUTE EOSINOPHIL / ABSOLUTE LYMPHOCYTE / ABSOLUTE MONOCYTE / ABSOLUTE SEGMENTED NEUTROPHIL / BASOPHIL / EOSINOPHIL / ERYTHROCYTE COUNT / HEMATOCRIT / HEMOGLOBIN / LEUKOCYTE COUNT / LYMPHOCYTE / MEAN CORPUSCULAR HEMOGLOBIN / MEAN CORPUSCULAR HEMOGLOBIN CONCENTRATION / MONOCYTE / NEUTROPHIL / NUCLEATED RED BLOOD CELLS / PLATELET COUNT: tissue Blood
[1] = 700 mg/kg, 72 h, dose level Low, time 3 day
[2] = 700 mg/kg, […], dose level Low, time 7 day
[3] = 1400 mg/kg, 72 h, dose level High, time 3 day
[4] = 1400 mg/kg, 120 h, dose level High, time 5 day

CN(C)C=O [DIMETHYLFORMAMIDE]
ALBUMIN [1]: 3.93 G/DL | ALKALINE PHOSPHATASE [1]: 282 u/L | ASPARTATE AMINOTRANSFERASE [1]: 140.33 u/L | BLOOD UREA NITROGEN [1]: 11.33 mg/dL | CARBON DIOXIDE [1]: 29.33 mmol/L | CHLORIDE [1]: 98.33 MEQ/L | CHOLESTEROL [1]: 93.83 mg/dL | CREATINE PHOSPHOKINASE [1]: 256.33 u/L | CREATININE [1]: 0.18 mg/dL | GLUCOSE [1]: 142 mg/dL | LACTATE DEHYDROGENASE [1]: 131.83 u/L | LIPASE [1]: 10.17 u/L | PHOSPHORUS [1]: 10.13 mg/dL | SODIUM [1]: 143.05 MEQ/L | TOTAL BILIRUBIN [1]: 0.2 mg/dL | TOTAL PROTEIN [1]: 5.9 G/DL | ABSOLUTE BASOPHIL [2]: 0 CELLS/uL | ABSOLUTE EOSINOPHIL [2]: 0 CELLS/uL | ABSOLUTE LYMPHOCYTE [2]: 8451.4 CELLS/uL | ABSOLUTE MONOCYTE [2]: 140.6 CELLS/uL | ABSOLUTE SEGMENTED NEUTROPHIL [2]: 648 CELLS/uL | BASOPHIL [2]: 0% | EOSINOPHIL [2]: 0% | ERYTHROCYTE COUNT [2]: 5.61 x10E6/uL | HEMATOCRIT [2]: 35.36% | HEMOGLOBIN [2]: 14.32 G/DL | LEUKOCYTE COUNT [2]: 9.24 x10E3/uL | LYMPHOCYTE [2]: 91% | MEAN CORPUSCULAR HEMOGLOBIN [2]: 25.62 pg | MEAN CORPUSCULAR HEMOGLOBIN CONCENTRATION [2]: 40.5 G/DL | MONOCYTE [2]: 1.6% | NEUTROPHIL [2]: 7.4% | NUCLEATED RED BLOOD CELLS [2]: 0 /100WBC | PLATELET COUNT [2]: 1220.6 x10E3/uL | ALANINE AMINOTRANSFERASE [2]: 100.4 u/L | ALBUMIN [2]: 4.46 G/DL | ALKALINE PHOSPHATASE [2]: 218 u/L | ASPARTATE AMINOTRANSFERASE [2]: 142.4 u/L | BLOOD UREA NITROGEN [2]: 16.4 mg/dL | CARBON DIOXIDE [2]: 30 mmol/L | CHLORIDE [2]: 98.6 MEQ/L | CHOLESTEROL [2]: 102 mg/dL | CREATINE PHOSPHOKINASE [2]: 220.4 u/L | CREATININE [2]: 0.23 mg/dL | GLUCOSE [2]: 122.8 mg/dL | LACTATE DEHYDROGENASE [2]: 232.2 u/L | LIPASE [2]: 11 u/L | PHOSPHORUS [2]: 12.18 mg/dL | SODIUM [2]: 145.44 MEQ/L | TOTAL BILIRUBIN [2]: 0.2 mg/dL | TOTAL PROTEIN [2]: 6.06 G/DL | ABSOLUTE BASOPHIL [3]: 0 CELLS/uL | ABSOLUTE EOSINOPHIL [3]: 0 CELLS/uL | ABSOLUTE LYMPHOCYTE [3]: 16367 CELLS/uL | ABSOLUTE MONOCYTE [3]: 177 CELLS/uL | ABSOLUTE SEGMENTED NEUTROPHIL [3]: 1156 CELLS/uL | BASOPHIL [3]: 0% | EOSINOPHIL [3]: 0% | ERYTHROCYTE COUNT [3]: 6.79 x10E6/uL | HEMATOCRIT [3]: 42.9% | HEMOGLOBIN [3]: 16.15 G/DL | LEUKOCYTE COUNT [3]: 17.7 x10E3/uL | LYMPHOCYTE [3]: 92.5% | MEAN CORPUSCULAR HEMOGLOBIN [3]: 23.8 pg | MEAN CORPUSCULAR HEMOGLOBIN CONCENTRATION [3]: 37.65 G/DL | MONOCYTE [3]: 1% | NEUTROPHIL [3]: 6.5% | NUCLEATED RED BLOOD CELLS [3]: 0 /100WBC | PLATELET COUNT [3]: 447 x10E3/uL | ALANINE AMINOTRANSFERASE [3]: 1328 u/L | ALBUMIN [3]: 4.1 G/DL | ALKALINE PHOSPHATASE [3]: 424 u/L | ASPARTATE AMINOTRANSFERASE [3]: 1614.5 u/L | BLOOD UREA NITROGEN [3]: 20 mg/dL | CARBON DIOXIDE [3]: 33 mmol/L | CHLORIDE [3]: 99.5 MEQ/L | CHOLESTEROL [3]: 70.5 mg/dL | CREATINE PHOSPHOKINASE [3]: 326.5 u/L | CREATININE [3]: 0.47 mg/dL | GLUCOSE [3]: 210.5 mg/dL | LACTATE DEHYDROGENASE [3]: 461 u/L | LIPASE [3]: 11 u/L | PHOSPHORUS [3]: 9 mg/dL | SODIUM [3]: 148.05 MEQ/L | TOTAL BILIRUBIN [3]: 0.35 mg/dL | TOTAL PROTEIN [3]: 5.8 G/DL | ABSOLUTE BASOPHIL [4]: 0 CELLS/uL | ABSOLUTE EOSINOPHIL [4]: 0 CELLS/uL | ABSOLUTE LYMPHOCYTE [4]: 7335 CELLS/uL | ABSOLUTE MONOCYTE [4]: 49.5 CELLS/uL | ABSOLUTE SEGMENTED NEUTROPHIL [4]: 565.5 CELLS/uL | BASOPHIL [4]: 0% | EOSINOPHIL [4]: 0% | ERYTHROCYTE COUNT [4]: 7.28 x10E6/uL | HEMATOCRIT [4]: 45.7%
